Assay results as given in the supplement of paper PMC3974653.
Structures can show the parent of a compound that is named as a salt.

How the values were obtained:
[1] = test system: MTT (mouse pheochromocytoma); test: IC50 of cell viability (ATP content); AC50 where efficacy is positive; conditions: (24 or 48 h)
[2] = test system: MTT (mouse pheochromocytoma); test: efficacy (maximal response) relative to doxorubicin = -100% and DMSO = 0%; higher = less inhibition of viability; conditions: (24 or 48 h)

| SMILES | IC50 of cell viability [1] [µM] | efficacy [2] [%] |
| --- | --- | --- |
| Oc1cc[c]([Hg][Cl])cc1 [PARA-CHLOROMERCURIPHENOL] | 2.37 | -97.8 |
| CC(C)(C)CC(C)(C)c1ccc(OCCOCC[N+](C)(C)Cc2ccccc2)cc1 [Benzethonium chloride] | 10.6 | -94.4 |
| C[C@@H]1CC[C@H]2[C@@H](C)C(=O)O[C@@H]3O[C@]4(C)CC[C@@H]1[C@@]32OO4 [Artemisinin] | 10.6 | -62 |
| C[N+]1(CC2COC(c3ccccc3)(C3CCCCC3)O2)CCCCC1 (stereo not drawn) [OXAPIUM IODIDE] | 6.68 | -60.2 |
| CC(=O)O[C@H]1C(=O)[C@@]2(C)[C@H]([C@H](OC(=O)c3ccccc3)[C@]3(O)CC(OC(=O)C(O)C(NC(=O)c4ccccc4)c4ccccc4)C(C)=C1C3(C)C)[C@]1(OC(C)=O)CO[C@@H]1C[C@@H]2O (stereo partly drawn) [Paclitaxel] | 0.0376 | -50.9 |
| NC/1=N/C(=O)N(/C=N1)[C@@H]2O[C@H](CO)[C@@H](O)[C@H]2O [Azacitidine] | 1.33 | -71.2 |
| O=[N+]([O-])C(Br)(CO)CO [Bronopol] | 15 | -58.4 |
| CC(C)(C)c1ccc(C(=O)CCCN2CCC(OC(c3ccccc3)c3ccccc3)CC2)cc1 [Ebastine] | 9.44 | -49.3 |
| [Hg+][c]1ccccc1 [PHENYLMERCURIC BORATE] | 2.99 | -91.5 |
| COc1cc2c(Nc3ccc(Br)cc3F)ncnc2cc1OCC1CCN(C)CC1 [VANDETANIB] | 26.6 | -102 |
| C=C1C(=O)O[C@@H]2[C@@H]1CC/C(C)=C\CC[C@@]1(C)O[C@H]21 [Parthenolide] | 8.41 | -104 |
| C[C@@]12C(=O)OC(=O)[C@@]1(C)[C@H]1CC[C@H]2O1 [Cantharidin] | 1.28 | -39 |
| C[C@@H]1CN(CCCn2c3ccccc3c3ccccc32)C[C@H](C)N1 [Rimcazole dihydrochloride] | 21.1 | -89.8 |
| CCN(CC)C1=CC=C(C=C1)C(\C2=CC=CC=C2)=C3\C=C/C(/C=C3)=[N+](\CC)CC [Brilliant Green] | 1.68 | -108 |
| COc1cc(NCCCC(C)N)c2ncccc2c1 (stereo not drawn) [QUINOCIDUM] | 18.8 | -93.9 |
| CCNC(=O)[C@@H]1CCCN1C(=O)[C@H](CCCNC(=N)N)NC(=O)[C@H](CC(C)C)NC(=O)[C@@H](Cc1c[nH]c2ccccc12)NC(=O)[C@H](Cc1ccc(O)cc1)NC(=O)[C@H](CO)NC(=O)[C@H](Cc1c[nH]c2ccccc12)NC(=O)[C@H](Cc1c[nH]cn1)NC(=O)[C@@H]1CCC(=O)N1 [DESLORELIN ACETATE] | 2.99 | -88.5 |
| F\C1=C\NC(=O)NC1=O [5-Fluorouracil] | 11.9 | -67.4 |
| C#C[C@]1(O)CC[C@H]2[C@@H]3CCc4cc(OC5CCCC5)ccc4[C@H]3CC[C@@]21C [Quinestrol] | 18.8 | -61.1 |
| C=C(C)[C@H]1Cc2c(ccc3c2O[C@@H]2COc4cc(OC)c(OC)cc4[C@@H]2C3=O)O1 [Rotenone] | 2.66 | -124 |
| CCCCCCCCCCCC[n+]1ccc2ccccc2c1 [LAURYL ISOQUINOLINIUM BROMIDE] | 0.376 | -31.3 |
| O=S(=O)([O-])c1cc(O)c2c(/N=N/c3ccc(Nc4ccccc4)c4c(S(=O)(=O)[O-])cccc34)cc(S(=O)(=O)[O-])cc2c1 [ANAZOLENUM NATRICUM] | 2.37 | -33.8 |
| NC/1=N/C(S)C/2\N=C/NC2=N1 (stereo not drawn) [6-Thioguanine (6-TG)] | 21.1 | -78.6 |
| CCN1/C(=C/C=C/C=C/c2sc3ccccc3[n+]2CC)Sc2ccccc21 [DITHIAZANINE IODIDE] | 18.8 | -109 |
| O=[N+]([O-])c1ccc(O)c2ncccc12 [Nitroxoline] | 21.1 | -85.8 |
| CCN1/C(=C/C=C/c2ccc3ccccc3[n+]2CC)C=Cc2ccccc21 [Quinaldine blue] | 0.299 | -34.9 |
| CN[C@H]1CC[C@@H](c2ccc(Cl)c(Cl)c2)c2ccccc21 [Sertraline hydrochloride (Zoloft)] | 15 | -39.9 |
| CC/1=C/C(=O)N(O)/C(=C1)C2CCCCC2 [Ciclopirox ethanolamine] | 4.53 | -84.9 |

| SMILES | IC50 of cell viability [1] [µM] | efficacy [2] [%] |
| --- | --- | --- |
| COC/1=C/C=C2\C(=C/C1=O)[C@H](CCC3=CC(=C(OC)C(=C23)OC)OC)NC(C)=O [Colchicine] | 0.473 | -84.8 |
| [Zn++].[O-]N1\C=C/C=C\C1=S.[O-]N2\C=C/C=C\C2=S [Zinc pyrithione] | 2.11 | -90.6 |
| CC(=O)Nc1ccc(NC(=S)NC(=O)c2ccc(C(C)(C)C)cc2)cc1 | 2.66 | -56 |
| COc1cc(NCc2ccc3nc(N)nc(N)c3c2C)cc(OC)c1OC [TRIMETREXATE GLUCURONATE] | 0.376 | -50.7 |
| COc1ccc2cc3[n+](cc2c1OC)CCc1cc2c(cc1-3)OCO2 [Berberine chloride] | 4.22 | -53.9 |
| CC1=CC(=CC=C1N)C(\C2=CC=C(N)C=C2)=C3/C=CC(=N)C=C3 [C.I. Basic Violet 14, free base] | 2.37 | -47.4 |
| CC[P](CC)(CC)=[Au][S][C@@H]1OC(COC(C)=O)[C@@H](OC(C)=O)[C@H](OC(C)=O)C1OC(C)=O (stereo partly drawn) [Auranofin] | 2.66 | -86.7 |
| CCCOc1ccc2[nH]c(NC(=O)OC)nc2c1 [OXIBENDAZOLE] | 0.531 | -39 |
| ClC(Cl)(Cl)SN1C(=O)C2C\C=C/CC2C1=O (stereo not drawn) [Captan] | 2.99 | -65.8 |
| COCC(=O)NC1=CC(SC2=CC=CC=C2)=CC=C1\N=C(/NC(=O)OC)NC(=O)OC [FEBANTEL] | 18.8 | -48 |
| Oc1ccc(OCc2ccccc2)cc1 [Monobenzone] | 10.1 | -55.4 |
| Sc1ncnc2[nH]cnc12 [6-Mercaptopurine monohydrate] | 21.1 | -78.1 |
| COC(=O)C12CCC(C)(C)CC1C3C(=O)\C=C4/C(C)(CCC5C(C)(C)C(=O)\C(=C/C45C)C#N)C3(C)CC2 (stereo not drawn) [RTA 402] | 6.68 | -108 |
| Cc1ccc2c(c1)c1c3n2CCNC3CCC1 (stereo not drawn) [Pirlindole mesylate] | 21.1 | -45.7 |
| CCCCCCCCCCCCCCCCOCCOCCOCCOCCOCCOCCOCCOCCOCCOCCOCCOCCOCCOCCOCCOCCOCCOCCOCCOCCO [CETOMACROGOL EMULSIFYING WAX] | 16.8 | -80.5 |
| CN(C)C1=CC=C(C=C1)C(C2=CC=C(C=C2)N(C)C)=C/3\C=C/C(/C=C3)=[N+](C)C [Chlorure de methylrosanilinum] | 23.7 | -111 |
| C/C(=C(/CCOC(=O)C(C)C)SS/C(CCOC(=O)C(C)C)=C(\C)N(C=O)Cc1cnc(C)nc1N)N(C=O)Cc1cnc(C)nc1N [BISIBUTHIAMINE] | 21.1 | -43.4 |
| c1ccc2[nH]c(-c3cscn3)nc2c1 [Thiabendazole] | 9.44 | -40 |
| C[CH2][Hg][S]c1ccccc1C(=O)[O-].[Na+] [THIMEROSAL] | 2.99 | -86.9 |
| CCc1nc(N)nc(N)c1-c1ccc(Cl)cc1 [Pyrimethamine] | 8.41 | -35 |
| COc1ccc(CC(N)C(=O)NC2C(CO)OC(n3cnc4c(N(C)C)ncnc43)C2O)cc1.Cl.Cl (stereo not drawn) [PUROMYCIN HYDROCHLORIDE] | 11.9 | -63.1 |
| [Na+].CCC(C1CCC(C)C(O1)C(C)C(O)C(C)C(=O)C(CC)C2OC\3(O[C@]4(CC[C@@](C)(O4)C5CC[C@@](O)(CC)C(C)O5)C(O)\C=C3)C(C)CC2C)C([O-])=O (stereo partly drawn) [SALINOMYCIN, SODIUM] | 3.35 | -47.9 |
| [H]/N=C(/c1ccc(OCCCCCC)c2ccccc12)N(CCCC)CCCC [BUNAMIDINE HYDROCHLORIDE] | 18.8 | -96.3 |
| CN1CC[C@@H]([C@@H](O)C1)C2=C(O)C=C(O)C3=C2O\C(=C/C3=O)C4=C(Cl)C=CC=C4 [Flavopiridol hydrochloride hydrate] | 1.88 | -71.3 |
| CCCCCCCCCCCCCCCC[n+]1ccccc1 [Cetylpyridinium bromide] | 10.6 | -96.5 |
| O=C(CCCCCCC(=O)Nc1ccccc1)NO [Suberoylanilide Hydroxamic Acid] | 0.0531 | -43.5 |
| CN(CCCN1c2ccccc2CCc2ccccc21)CC(=O)c1ccc(Cl)cc1 [LOFEPRAMINE HYDROCHLORIDE] | 26.6 | -62.9 |
